System: in vitro-translated complex of the M. persicae EcR and USP polypeptides
Assay: Tritiated ponasterone A filter binding assay with in vitro-translated polypeptides
Parameters: species or system Myzus persicae
Conditions: tritiated ponasterone A 2.2 nM, 90 min, room temperature; complex versus USP or EcR polypeptide alone (FIG. 4)
Experimental: In vitro-translated Myzus persicae EcR (MpEcR) polypeptide and an in vitro-translated M. persicae USP (MpUSP) polypeptide were produced labelled with [^35S]Methionine, using the Promega TNT-Coupled Reticulocyte Lysate System. Each batch of lysate contained 100-200 mg/ml of endogenous proteins (using BSA as a standard). The products were analysed by SDS-PAGE and radioautography. The results confirmed that the cloned cDNAs encode proteins of the sizes predicted from the length of putative open reading frames of the cDNAs present in plasmids pMpEcR and pMPUSP. The yields of EcR and USP were similar as assessed by SDS-PAGE.
In functional assays, DNA plasmids pMpEcR (AGAL Accession No. NM99/04567; […]) or pMpUSP (AGAL Accession No. NM99/04568; […]), which have been constructed using the vector pBK-CMV, and […] of appropriate TNT RNA Polymerase were added to […] of reaction mix which contained TNT Lysate, TNT Reaction Buffer, amino acid mixture, Rnasin Ribonuclease Inhibitor and nuclease-free water in volumes specified in the manufactureFS protocol. […]
After thawing the translation products, […] aliquots of the reaction mixture containing M. persicae EcR and USP polypeptides were combined to promote formation of the EcR/USP complex. […] The receptor bound ligand was quantified using a TriCarb 2100TR scintillation counter.

CC(C)CC[C@@H](O)[C@](C)(O)[C@H]1CC[C@@]2(O)C3=CC(=O)[C@@H]4C[C@@H](O)[C@@H](O)C[C@]4(C)[C@H]3CC[C@]12C [PNA, ponasterone A]
amount of ligand bound to EcR/USP complex: significantly higher amounts

— US7312322B1, “Genetic sequences encoding steroid and juvenile hormone receptor polypeptides and insecticidal modalities therefor” (priority 1998, dated 2007)
